Data taken from patent US7101878B1 (Agouron Pharmaceuticals, Inc., priority 1998, dated 2006).

What was measured:
[1] = biological target: T1, mouse GnRH receptor (Mus musculus, UniProt Q01776); assay: Radioligand binding, 125I-GnRH-A, 293 cells expressing mouse GnRH receptors; conditions: read-out: mGnRH IC50
T1 construct: expressed in transfected cells; host or cells: 293 cells
T1 sequence (Q01776 1-327): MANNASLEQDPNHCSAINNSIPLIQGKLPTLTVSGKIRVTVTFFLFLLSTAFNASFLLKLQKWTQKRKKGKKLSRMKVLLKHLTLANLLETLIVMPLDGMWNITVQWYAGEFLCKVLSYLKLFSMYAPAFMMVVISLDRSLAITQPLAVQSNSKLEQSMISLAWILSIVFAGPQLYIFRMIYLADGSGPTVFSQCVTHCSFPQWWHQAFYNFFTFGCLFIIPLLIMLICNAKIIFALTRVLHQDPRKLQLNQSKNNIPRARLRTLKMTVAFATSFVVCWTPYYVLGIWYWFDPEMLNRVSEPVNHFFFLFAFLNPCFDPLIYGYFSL
In short: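 Bound label captured on 0.1% polyethyleneimine-treated GF/C filters, washed three times with PBS, counted. IC50 derived; identical set-up for every species.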

[2] = biological target: T2, rat GnRH receptor (Rattus norvegicus, UniProt P30969); assay: Radioligand binding, 125I-GnRH-A, rat pituitary membranes; set-up: membranes were prepared from rat pituitary; from tissue; host or cells: rat pituitary; conditions: read-out: rGnRH IC50
T2 sequence (P30969 1-327): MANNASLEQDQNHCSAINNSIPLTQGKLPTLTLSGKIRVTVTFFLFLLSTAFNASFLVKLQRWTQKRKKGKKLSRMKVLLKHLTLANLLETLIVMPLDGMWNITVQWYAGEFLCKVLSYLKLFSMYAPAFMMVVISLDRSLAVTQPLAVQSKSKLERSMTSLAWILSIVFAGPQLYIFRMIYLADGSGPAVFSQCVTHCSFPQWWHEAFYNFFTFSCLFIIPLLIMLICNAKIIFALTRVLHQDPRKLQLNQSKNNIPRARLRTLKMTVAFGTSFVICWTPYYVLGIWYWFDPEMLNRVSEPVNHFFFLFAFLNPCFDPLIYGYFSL
Protocol: All compounds were diluted in 1% DMSO (final assay concentration) in binding assay buffer. […] Reactions were terminated by rapid filtration onto 96-well Packard GF/C filters soaked in 0.1% polyethyleneimine. Filters were washed three times with PBS buffer, dried and counted on a Packard Topcount by liquid scintillation counting.
Assay conditions were identical for assessing compound activities at other species. […] IC50 values for control peptides and test compounds were calculated utilizing GraphPad Prism™ software.
The reaction mixture was vortexed and incubated for 1 min at room temperature. After one min, the mixture was vortexed and allowed to incubate for an additional minute. 2 ml of 0.5 M acetic acid/1% BSA was added to the reaction tube and the mixture was added to a C18 Sep-Pak cartridge. The cartridge was washed with subsequent washes of 5 ml H2O and 5 ml 0.5M acetic acid and then eluted with 5×1 ml of 60% CH3CN/40% 0.5M acetic acid. The eluate was diluted with 3× volume of HPLC buffer A (0.1% TFA in H2O) and loaded onto a C18 column. […] The radioactive fractions (750 ed/fraction) are collected into clean polypropylene tubes containing 100 μl of 10% BSA. Fractions were assessed for biological activity by radioligand binding.

[3] = biological target: T3, human GnRH receptor (Homo sapiens, UniProt P30968); assay: Radioligand binding, 125I-GnRH-A displacement, membranes of HEK 293 cells with human GnRH receptor; conditions: read-out: hGnRH IC50
T3 construct: expressed in transfected cells; host or cells: HEK 293 (hGnRH-R/293, from Dr. Stuart Sealfon)
T3 sequence (P30968 1-328): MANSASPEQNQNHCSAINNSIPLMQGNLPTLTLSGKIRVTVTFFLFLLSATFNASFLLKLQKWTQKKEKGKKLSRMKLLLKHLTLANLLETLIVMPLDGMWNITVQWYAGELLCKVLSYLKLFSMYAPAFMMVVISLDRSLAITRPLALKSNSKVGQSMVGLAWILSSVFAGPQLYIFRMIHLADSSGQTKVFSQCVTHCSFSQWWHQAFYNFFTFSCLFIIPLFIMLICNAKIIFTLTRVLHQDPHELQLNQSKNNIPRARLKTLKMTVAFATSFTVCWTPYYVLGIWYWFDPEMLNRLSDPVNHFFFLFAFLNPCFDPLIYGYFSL
In short: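 Bound tracer was separated by filtration through polyethyleneimine-soaked GF/C filters and counted by liquid scintillation. IC50 from curve fitting; other species were tested under the same conditions.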

Row | IC50 [1] [nM] | IC50 [2] [nM] | IC50 [3] [nM] | SMILES
1 | 1300 | 1490 | 315 | Cc1cc2c(cc1Cc1ccc(C(=O)NCC3CCC(CNc4ncc(C#N)c(N)n4)CC3)o1)C(C)(C)CCC2(C)C (stereo not shown) [Compound 94]
2 | 84 | 220 | 80 | COc1ccc(OC)c(NC(=O)c2ccc(Cc3cc4c(cc3C)C(C)(C)CCC4(C)C)o2)c1 [Compound 98]
3 | 119 | 220 | 167 | COc1cc(OC)c(NC(=O)c2ccc(Cc3cc(-c4ccccc4)c(C)cc3C)o2)c(OC)c1 [Compound 302]
4 | 9 | 5.7 | 19 | CCC(C)(C)c1ccc(OC)c(Cc2ccc(C(=O)Nc3c(OC)cc(OC)cc3OC)o2)c1 [Compound 232]
5 | 21 | 11 | 120 | COCCCNc1ccnc(NCc2cccc(CNC(=O)c3ccc(Cc4cc5c(cc4C)C(C)(C)CCC5(C)C)o3)c2)n1 [Compound 153]
6 | 710 | 740 | 115 | Cc1cc2c(cc1Cc1ccc(C(=O)NCC3CCC(CN)CC3)o1)C(C)(C)CCC2(C)C (stereo not shown) [Compound 75]
7 | 220 | 170 | 220 | Cc1cc2c(cc1Cc1ccc(C(=O)NCC3CCN(c4nccc(NCC5CCCO5)n4)CC3)o1)C(C)(C)CCC2(C)C (stereo not shown) [Compound 128]
8 | 64 | 35 | 150 | Cc1cc2c(cc1Cc1ccc(C(=O)NCc3ccc(CNc4nccc(NCC5CCCO5)n4)cc3)o1)C(C)(C)CCC2(C)C (stereo not shown) [Compound 141]
9 | 150 | 113 | 110 | Cc1cc2c(cc1Cc1ccc(C(=O)NCc3cccc(CN)c3)o1)C(C)(C)CCC2(C)C [Compound 139]
10 | 1050 | 560 | 135 | COC(CCCNC(=O)c1ccc(Cc2cc3c(cc2C)C(C)(C)CCC3(C)C)o1)OC [Compound 125]
11 | 62 | 58 | 130 | COc1cc(OC)c(NC(=O)c2ccc(Cc3cc(C(C)(C)C)ccc3OC)o2)c(OC)c1 [Compound 203]
12 | – | 370 | 250 | Cc1cc2c(cc1Cc1ccc(C(=O)NCc3ccc(-c4csnn4)cc3)o1)C(C)(C)CCC2(C)C [Compound 79]
13 | – | 430 | 380 | COC(=O)c1cc(OC)c(OC)c(OC)c1NC(=O)c1ccc(Cc2cc3c(cc2C)C(C)(C)CCC3(C)C)o1 [Compound 118]
14 | – | 970 | 1180 | Cc1cc2c(cc1Cc1ccc(C(=O)Nc3ccc(C(N)=O)cc3)o1)C(C)(C)CCC2(C)C [Compound 102]
15 | – | 3000 | 1810 | Cc1cc2c(cc1Cc1ccc(C(=O)NC3CCN(c4nccc(NCC5CCCO5)n4)C3)o1)C(C)(C)CCC2(C)C (stereo not shown) [Compound 117]
16 | – | 1690 | 1700 | Cc1cc(C)nc(NS(=O)(=O)c2ccc(NC(=O)c3ccc(Cc4cc5c(cc4C)C(C)(C)CCC5(C)C)o3)cc2)n1 [Compound 97]
17 | – | > 10000 | > 10000 | Cc1cc2c(cc1Cc1ccc(C(=O)Nc3cncc(COC(=O)c4ccc(Cc5cc6c(cc5C)C(C)(C)CCC6(C)C)o4)c3)o1)C(C)(C)CCC2(C)C [Compound 120]
18 | – | 3460 | 360 | Cc1cc2c(cc1Cc1ccc(C(=O)NCC3CCN(c4ccnc(Cl)n4)CC3)o1)C(C)(C)CCC2(C)C [Compound 103]
19 | – | 590 | 3000 | Cc1cc2c(cc1Cc1ccc(C(=O)NCc3ccc(F)cc3)o1)C(C)(C)CCC2(C)C [Compound 130]
20 | – | 8450 | > 10000 | Cc1ccc(C)c(Cc2ccc(C(=O)NCc3cnc(C)cn3)o2)c1 [Compound 77]
21 | – | 1740 | 620 | Cc1cc2c(cc1Cc1ccc(C(=O)NCCCN3CCOCC3)o1)C(C)(C)CCC2(C)C [Compound 83]
22 | – | 390 | 1170 | Cc1cc2c(cc1Cc1ccc(C(=O)NCc3cccc(CNC(=O)C(F)(F)F)c3)o1)C(C)(C)CCC2(C)C [Compound 116]
